Assay results reported in US5059590A, “Imidazole derivatives, process for production thereof, and use thereof” (Yamasa Shoyu Kabushiki Kaisha, priority 1988, dated 1991).
Values after ≈ are worked out from the molar mass of the structure shown.

Key:
[1] = system: mouse sarcoma 180; test: In vitro anti-proliferative activity against mouse tumor cell lines, Test Method 2 (sarcoma 180); format: cell-based; details: Sarcoma 180, 48 hours, 37° C.
Procedure: In vitro anti-proliferative activity against mouse tumor cell lines
1. Mouse lymphoma cell line P388 or mouse sarcoma 180 is suspended in RPMI1640 medium supplemented with 10% fetal bovine serum and 2 μM 2-hydroxyethyl disulfide to a concentration of 10^5 cells/ml. Test compounds are serially diluted with the same medium.
2. 0.5 ml of the cell suspension thus obtained is admixed with 0.5 ml of the medium or the test compound solution, and the mixture is incubated in a 5% CO2 -incubator at 37° C. for 48 hours. The incubation is carried out in glass culture tubes.
3. At the end of incubation, the number of the cells in each tube is counted with a Coulter counter (Model ZB, Coulter Electronics), and the growth inhibition percent (%) is calculated from the same equation as in Test Method 1.
4. The IC50 value is obtained as in Test Method I.

[2] = system: WiDr; test: In vitro anti-proliferative activity against human tumor cell lines (WiDr); format: cell-based; details: Colon adenocarcinoma, 72 hours
Procedure: (§1) In vitro anti-proliferative activity against human tumor cell lines
(§2) Test Compound: 5-ethynyl-1-β-D-ribofuranosylimidazole-4-carboxamide
(§3) A variety of human tumor cell lines are suspended in media specified according to the species of the cell lines to predetermined cell concentrations as shown in the following Table.
(§4) 1 ml of the resulting cell suspension is seeded into each well of a 24 multi-well plate and incubated in a 5% CO2 -incubator at 37° C. for 24 hours. The culture medium is then replaced by a medium containing no test compound or by an appropriate amount of a serially diluted test compound solution. […] The number of the cells in each well is counted with a Coulter counter (Model ZB, Coulter Electronics), and the growth inhibition percent (%) of the cells at each concentration of a test compound is determined by the following equation: [formula] Tx: Number of the cells in a well containing a test compound as counted upon completion of the incubation (cells/ml) […] Cx: Number of the cells in a well containing no test compound as counted upon completion of the incubation (cells/ml)
(§5) Co: Number of the cells in a well containing no test compound as counted at the initiation of the incubation (cells/ml) […]

[3] = system: T24; test: In vitro anti-proliferative activity against human tumor cell lines (T24); format: cell-based; details: T-24, T24, Bladder trasitional-cell carcinoma, 72 hours
Procedure: as §1, §2, §3, §4, §5

[4] = system: Dul45; test: In vitro anti-proliferative activity against human tumor cell lines (Dul45); format: cell-based; details: Dul45, Prostate carcinoma, 72 hours
Procedure: as §1, §2, §3, §4, §5

[5] = system: PC-3; test: In vitro anti-proliferative activity against human tumor cell lines (PC-3); format: cell-based; details: PC-3, Prostate adenocarcinoma, 72 hours
Procedure: as §1, §2, §3, §4, §5

[6] = system: sarcoma 180; test: In vivo antitumor activity against sarcoma 180 intracutaneously implanted into BALB/c mice; parameters: species or system mouse; key to Tumor growth rate (Rt): R = tumor volume at time / tumor volume on day 8 (A/A8); details: for antitumor activity: i.v.
Procedure: In vivo antitumor activity against sarcoma 180 intracutaneously implanted into BALB/c mice
Three million (3×10^6) Sarcoma 180 cells are intracutaneously implanted at the ventral site of BALB/c mice (male, 5 weeks old). Eight days after the implantation when the tumor volume reached 200 to 300 mm^3, the mice are divided into groups (6 mice/group), and the treatment with a test drug was started. The test drug is dissolved in distilled water and intravenously administered to the mice at a rate of 0.1 ml per 10 g of the body weight thereof. In accordance with two different schedules, 5-ethynyl01β-D-ribofuranosylimidazole-4-carboxamide is administered once or three times, i.e., once at a dose of 250 mg/kg on day 8 (single-dose group) or three times at a dose of 125 mg/kg on days 8, 12 and 16 (multiple-dose group).
Each mouse is weighed, and the width (a mm) and length (b mm) of the tumor thereof are measured twice a week to determine the tumor volume (A mm^3) from the following equation: […]
Subsequently, the tumor growth rate (R) is determined as follows on the basis of the tumor volume (A8) on day 8 after the implantation of the tumor cells :
R: Tumor growth rate after a predetermined period from the tumor implantation
A: Tumor volume after a predetermined period from the tumor implantation
A8 : Tumor volume as determided 8 days after the tumor implantation
T/C(%) is further obtained from the following equation by comparison between the tumor growth rate in the test group (Rt) and that in the control group (Rc):
Single-dose group: 250 mg/kg of the drug was intravenously administered o
day 8 after the tumor implantation.
Multipledose group: 125 mg/kg of the drug was intravenously administered
on days 8, 12 and 16 after the tumor implantation.

[7] = multiple-dose group, 125 mg/kg i.v. days 8, 12, 16, day 8 after implantation
[8] = multiple-dose group, 125 mg/kg i.v. days 8, 12, 16, day 12
[9] = multiple-dose group, 125 mg/kg i.v. days 8, 12, 16, day 15, * = P < 0.05 vs control
[10] = multiple-dose group, 125 mg/kg i.v. days 8, 12, 16, day 19, * = P < 0.05 vs control
[11] = multiple-dose group, 125 mg/kg i.v. days 8, 12, 16, day 22, * = P < 0.05 vs control
[12] = multiple-dose group, 125 mg/kg i.v. days 8, 12, 16, day 26, * = P < 0.05 vs control
[13] = multiple-dose group, 125 mg/kg i.v. days 8, 12, 16, day 29, * = P < 0.05 vs control
[14] = multiple-dose group, 125 mg/kg i.v. days 8, 12, 16, day 33
[15] = single-dose group, 250 mg/kg i.v. day 8, day 8 after implantation
[16] = single-dose group, 250 mg/kg i.v. day 8, day 12, * = P < 0.05 vs control
[17] = single-dose group, 250 mg/kg i.v. day 8, day 15, * = P < 0.05 vs control
[18] = single-dose group, 250 mg/kg i.v. day 8, day 19, * = P < 0.05 vs control
[19] = single-dose group, 250 mg/kg i.v. day 8, day 22, * = P < 0.05 vs control
[20] = single-dose group, 250 mg/kg i.v. day 8, day 26, * = P < 0.05 vs control
[21] = single-dose group, 250 mg/kg i.v. day 8, day 29, * = P < 0.05 vs control
[22] = single-dose group, 250 mg/kg i.v. day 8, day 33, * = P < 0.05 vs control

IC50 [1]: 0.1 µg/mL (≈ 0.374 µM) | IC50 [2]: 0.46 µg/mL (≈ 1.72 µM) | IC50 [3]: 0.37 µg/mL (≈ 1.38 µM) | IC50 [4]: < 0.1 µg/mL | IC50 [5]: 0.8 µg/mL (≈ 2.99 µM)
SMILES: C#Cc1c(C(N)=O)ncn1[C@@H]1O[C@H](CO)[C@@H](O)[C@H]1O [5-ethynyl-1-β-D-ribofuranosylimidazole-4-carboxamide]
antitumor activity ([6]; 125 mg/kg every 4 days 3 times in total): remarkable antitumor activity | Body weight [6, 7]: 26 g | T/C (%) [6, 7]: 100% | Tumor growth rate (Rt) [6, 7]: 1.0 | Body weight [6, 8]: 26 g | T/C (%) [6, 8]: 81% | Tumor growth rate (Rt) [6, 8]: 1.5 | Body weight ([6]; multiple-dose group, 125 mg/kg i.v. days 8, 12, 16, day 15): 25 g | T/C (%) [6, 9]: 51% | Tumor growth rate (Rt) [6, 9]: 1.5 | Body weight ([6]; multiple-dose group, 125 mg/kg i.v. days 8, 12, 16, day 19): 25 g | T/C (%) [6, 10]: 45% | Tumor growth rate (Rt) [6, 10]: 1.9 | Body weight ([6]; multiple-dose group, 125 mg/kg i.v. days 8, 12, 16, day 22): 26 g | T/C (%) [6, 11]: 37% | Tumor growth rate (Rt) [6, 11]: 2.6 | Body weight ([6]; multiple-dose group, 125 mg/kg i.v. days 8, 12, 16, day 26): 26 g | T/C (%) [6, 12]: 39% | Tumor growth rate (Rt) [6, 12]: 4.7 | Body weight ([6]; multiple-dose group, 125 mg/kg i.v. days 8, 12, 16, day 29): 26 g | T/C (%) [6, 13]: 42% | Tumor growth rate (Rt) [6, 13]: 7.0 | Body weight [6, 14]: 27 g | T/C (%) [6, 14]: 53% | Tumor growth rate (Rt) [6, 14]: 11 | antitumor activity ([6]; once at a dose of 250 mg/kg): remarkable antitumor activity | Body weight [6, 15]: 25 g | T/C (%) [6, 15]: 100% | Tumor growth rate (Rt) [6, 15]: 1.0 | Body weight ([6]; single-dose group, 250 mg/kg i.v. day 8, day 12): 24 g | T/C (%) [6, 16]: 65% | Tumor growth rate (Rt) [6, 16]: 1.2 | Body weight ([6]; single-dose group, 250 mg/kg i.v. day 8, day 15): 25 g | T/C (%) [6, 17]: 45% | Tumor growth rate (Rt) [6, 17]: 1.3 | Body weight ([6]; single-dose group, 250 mg/kg i.v. day 8, day 19): 25 g | T/C (%) [6, 18]: 46% | Tumor growth rate (Rt) [6, 18]: 2.0 | Body weight ([6]; single-dose group, 250 mg/kg i.v. day 8, day 22): 26 g | T/C (%) [6, 19]: 34% | Tumor growth rate (Rt) [6, 19]: 2.4 | Body weight ([6]; single-dose group, 250 mg/kg i.v. day 8, day 26): 26 g | T/C (%) [6, 20]: 39% | Tumor growth rate (Rt) [6, 20]: 4.7 | Body weight ([6]; single-dose group, 250 mg/kg i.v. day 8, day 29): 26 g | T/C (%) [6, 21]: 39% | Tumor growth rate (Rt) [6, 21]: 6.6 | Body weight ([6]; single-dose group, 250 mg/kg i.v. day 8, day 33): 27 g | T/C (%) [6, 22]: 45% | Tumor growth rate (Rt) [6, 22]: 9.5
